The data set in a line: Henry solubility constant Hcp at 298.15 K (mol/(m3 Pa)).
Setting [1] is: reference: Murphy et al. (1983a).
The mark [2] stands for this setting: reference: Amoore and Buttery (1978).
Where [3] appears, read: reference: Butler et al. (1935).
Setting [4] is: reference: Snider and Dawson (1985).
Setting [5] is: reference: Straver and de Loos (2005).
Setting [6] is: reference: McFall et al. (2020).
Where [7] appears, read: reference: Miguel et al. (2000).

The structures appear in SMILES notation. Several values for one entry are separate records, joined by “and”; a condition that tells them apart may be missing. Equal entries are not always repeated.

Take `CN(Cl)Cl` [N,N-dichloromethylamine]: where the note is “reference: Cimetiere and de Laat (2009)”, the “Henry solubility constant Hcp” value was 0.0033.
As to `ClC1=C(Cl)[C@]2(Cl)[C@H]3[C@H]([C@@H]4C=C[C@H]3C4)[C@@]1(Cl)C2(Cl)Cl` [aldrin], the “Henry solubility constant Hcp” value (reference: Warner et al. (1980)) turned out to be 0.02.
With `CC(C)CCC(C)C` [2,5-dimethylhexane], under “reference: Dohányosová et al. (2004)”, the “Henry solubility constant Hcp” value amounted to 2.4e-06.
For the compound `FC(F)=C(F)C(F)(F)F` [hexafluoropropene], the “Henry solubility constant Hcp” value (reference: Maaßen (1995)) came out at 6.8e-06.
In the case of `CC(C)Cc1cnccn1` [2-isobutylpyrazine], the “Henry solubility constant Hcp” value (reference: Buttery et al. (1971)) turned out to be 2.
In the case of `Clc1ccc(Cl)c(-c2cc(Cl)c(Cl)c(Cl)c2Cl)c1` [2,2',3,4,5,5'-hexachlorobiphenyl], the “Henry solubility constant Hcp” value under setting [1] was 0.025.
For `ClNCl` [dichloramine], the “Henry solubility constant Hcp” value (reference: Holzwarth et al. (1984)) stood at 0.28.
As to `CC(=O)C(=O)O` [2-oxopropanoic acid], the “Henry solubility constant Hcp” value reads like this: (reference: Khan and Brimblecombe (1992)) 3100; (reference: Khan et al. (1992)) 3100; (reference: Khan et al. (1995)) 3100.
In the case of `ClC1=C(Cl)C2(Cl)C3C(Cl)C(Cl)C(Cl)C3C1(Cl)C2(Cl)Cl` (stereo not drawn) [trans-nonachlor], for the setting “reference: Jantunen and Bidleman (2006)”, the “Henry solubility constant Hcp” value amounted to 0.031.
`Cc1cnc(C)cn1` [2,5-dimethylpyrazine]: the “Henry solubility constant Hcp” value by setting is: (reference: Druaux et al. (1998)) 5.5; (reference: Marin et al. (1999)) 7.1.
For `Clc1cc(Cl)c(Cl)cc1Cl` [1,2,4,5-tetrachlorobenzene], for the setting “reference: McPhedran et al. (2013)”, the “Henry solubility constant Hcp” value came to 0.018.
`CN(C)C` [trimethylamine]: the “Henry solubility constant Hcp” value under setting [2] is 0.076; the “Henry solubility constant Hcp” value (reference: Christie and Crisp (1967)) stood at 0.095; the “Henry solubility constant Hcp” value (reference: Leng et al. (2015a)) is 0.084.
For `CC(C)C` [2-methylpropane], the “Henry solubility constant Hcp” value is, setting by setting: (reference: McAuliffe (1963)) 8.5e-06; (reference: Mohebbi et al. (2012)) 0.00011; (reference: Wetlaufer et al. (1964)) 9.9e-06.
Turning to `N#Cc1c(Cl)cccc1Cl` [2,6-dichlorobenzenenitrile], the “Henry solubility constant Hcp” value (reference: Schoene and Steinhanses (1985)) amounted to 0.48.
Take `CCS` [ethanethiol]: the “Henry solubility constant Hcp” value amounted to 0.0024 (reference: Jou et al. (2021)) and 0.0022 (reference: Vitenberg et al. (1975)).
As for `COC(=O)C(F)(F)F` [trifluoroethanoic acid, methyl ester], the “Henry solubility constant Hcp” value (reference: Kutsuna et al. (2004)) is 0.0012.
Take `Fc1ccccc1` [fluorobenzene]: the “Henry solubility constant Hcp” value (reference: Hartkopf and Karger (1973)) turned out to be 0.0015.
Regarding `CCC(=O)C(C)C` [2-methyl-3-pentanone], for the setting “reference: Hovorka et al. (2019)”, the “Henry solubility constant Hcp” value is 0.052.
Turning to `CC1=CC=C(C(C)C)CC1` [1-methyl-4-(1-methylethyl)-1,3-cyclohexadiene], the “Henry solubility constant Hcp” value reads like this: (reference: Copolovici and Niinemets (2005)) 0.00029; (reference: Schuhfried et al. (2015)) 0.00038.
On to `O=C=C=C=O` [carbon suboxide], for which, under “reference: Keßel et al. (2017)”, the “Henry solubility constant Hcp” value was found to be 0.011.
As to `COP(=O)(OC)C(O)C(Cl)(Cl)Cl` (stereo unspecified), where the note is “reference: Kawamoto and Urano (1989)”, the “Henry solubility constant Hcp” value is above 810.
In the case of `C[Si](C)(C)O[Si](C)(C)O[Si](C)(C)C` [octamethyltrisiloxane], the “Henry solubility constant Hcp” value (reference: Xu and Kropscott (2014)) stood at 3.4e-07.
For the compound `CC(C)C(C)O` (stereo unspecified) [3-methyl-2-butanol], the “Henry solubility constant Hcp” value (reference: Fenclová et al. (2010)) stood at 0.54.
As to `Brc1cc(Br)c(Oc2cc(Br)c(Br)cc2Br)c(Br)c1` [2,2',4,4',5,6'-hexabromodiphenyl ether], the “Henry solubility constant Hcp” value runs as follows: (reference: Cetin and Odabasi (2005)) 7.3; (reference: Long et al. (2017)) 7.1.
Consider `Cc1ccnc(C)c1` [2,4-dimethylpyridine], for which the “Henry solubility constant Hcp” value (reference: Hawthorne et al. (1985)) came out at 0.99.
On to `FC(C(F)(F)F)C(F)(F)F` [1,1,1,2,3,3,3-heptafluoropropane], for which the “Henry solubility constant Hcp” value (reference: Reichl (1995)) stood at 1.4e-05.
Take `OC(C(F)(F)F)C(F)(F)F` [1,1,1,3,3,3-hexafluoro-2-propanol]: the “Henry solubility constant Hcp” value (reference: Rochester and Symonds (1973)) worked out at 0.24.
For `CCO` [ethanol], the “Henry solubility constant Hcp” value is, setting by setting: (reference: Burnett (1963)) 2.1; under setting [3], 1.9; (reference: Gupta et al. (2000)) 1.8; (reference: Harger et al. (1950)) 1.9; (reference: Jones (1983)) 1.9; (reference: Park et al. (1987)) 1.9. Besides, the “Henry solubility constant Hcp” value is 3.1 (reference: Pividal et al. (1992)); 2 (reference: Richon et al. (1985)); 2.3 (reference: Rohrschneider (1973)); 1.9 under setting [4]; 1.9 under setting [5]; 1.1 (reference: Ueberfeld et al. (2001)). The “Henry solubility constant Hcp” value is 1.8 (reference: Vitenberg and Dobryakov (2008)); 1.8 (reference: Willey et al. (2017)).
`CCCCCCCO` [1-heptanol]: the “Henry solubility constant Hcp” value (reference: Lei et al. (2007)) worked out at 0.36 and the “Henry solubility constant Hcp” value (reference: Shunthirasingham et al. (2013)) amounted to 0.38.
For `COc1ccccc1O` [1-hydroxy-2-methoxybenzene], the “Henry solubility constant Hcp” value is 8.6 under setting [6]; 7.7 and 9.1 (reference: Sagebiel et al. (1992)); 9 (reference: Wieland et al. (2015)).
For `CCCc1ccccc1` [propylbenzene], the “Henry solubility constant Hcp” value (reference: Perlinger et al. (1993)) is 0.00086.
Consider `C=CC=O` [propenal], for which the “Henry solubility constant Hcp” value under setting [4] is 0.072.
For `O=C(O)CBr` [bromoethanoic acid], the “Henry solubility constant Hcp” value (reference: Bowden et al. (1998a)) came to 1500.
Take `FC(F)F` [trifluoromethane]: the “Henry solubility constant Hcp” value turned out to be 0.00012 (reference: Maaßen (1995)), 0.00021 under setting [7] and 0.00013 (reference: Zheng et al. (1997)).
Take `Cc1cc(Cl)ccc1OCC(=O)O` [(2-methyl-4-chlorophenoxy)acetic acid]: for the setting “reference: Mabury and Crosby (1996)”, the “Henry solubility constant Hcp” value was above 99.
With `FC(F)C(F)(F)F` [pentafluoroethane], the “Henry solubility constant Hcp” value runs as follows: under setting [7], 0.00031; (reference: Reichl (1995)) 3.5e-05.
Take `CS` [methanethiol]: the “Henry solubility constant Hcp” value by setting is: (reference: De Bruyn et al. (1995b)) 0.002; (reference: Hine and Weimar (1965)) 0.0033.
Consider `CCOCc1ccc(O)c(OC)c1` [vanillyl ethyl ether], for which the “Henry solubility constant Hcp” value under setting [6] stood at 410.
Regarding `C=CC=C` [1,3-butadiene], the “Henry solubility constant Hcp” value (reference: Ross and Hudson (1957)) was determined as 0.00014.
As for `CCCCCCO[N+](=O)[O-]` [1-hexyl nitrate], for the setting “reference: Hauff et al. (1998)”, the “Henry solubility constant Hcp” value stood at 0.0076.
In the case of `FC(F)(F)C(Cl)Cl` [2,2-dichloro-1,1,1-trifluoroethane], the “Henry solubility constant Hcp” value (reference: Chang and Criddle (1995)) was found to be 0.00032; the “Henry solubility constant Hcp” value (reference: Kutsuna (2013)) was 0.00023.
For `Clc1cc(Cl)c(-c2cc(Cl)c(Cl)cc2Cl)cc1Cl` [2,2',4,4',5,5'-hexachlorobiphenyl], the “Henry solubility constant Hcp” value under setting [1] worked out at 0.028.
`OCCC(F)(F)C(F)(F)C(F)(F)C(F)(F)F` [1H,1H,2H,2H-perfluorohexan-1-ol]: the “Henry solubility constant Hcp” value (reference: Goss et al. (2006)) was determined as 0.013; the “Henry solubility constant Hcp” value (reference: Lei et al. (2004)) worked out at 6.1e-05; the “Henry solubility constant Hcp” value (reference: Wu and Chang (2011)) was found to be 0.0066.
In the case of `CC(C)CO` [2-methyl-1-propanol], the “Henry solubility constant Hcp” value worked out at 0.83 under setting [3] and 1 under setting [4].
Consider `CC/C=C\CCC=O` [(Z)-4-heptenal], for which the “Henry solubility constant Hcp” value under setting [5] was found to be 0.088.
Take `Brc1ccc(Br)cc1` [1,4-dibromobenzene]: the “Henry solubility constant Hcp” value (reference: Kuramochi et al. (2004)) worked out at 0.0094.
On to `CC1CCCCC1` [methylcyclohexane], for which the “Henry solubility constant Hcp” value (reference: Ramachandran et al. (1996)) stood at 0.00015.
As for `Clc1cccc(Cl)c1Cl` [1,2,3-trichlorobenzene], the “Henry solubility constant Hcp” value (reference: Brockbank et al. (2013)) worked out at 0.0063.
Take `Clc1ccc(-c2cc(Cl)ccc2Cl)cc1` [2,4',5-trichlorobiphenyl]: under setting [1], the “Henry solubility constant Hcp” value is 0.049.
Consider `Clc1ccccc1-c1c(Cl)cccc1Cl` [2,2',6-trichlorobiphenyl], for which the “Henry solubility constant Hcp” value under setting [1] came to 0.047.
Turning to `CCCCCCOC(C)=O` [hexyl ethanoate], the “Henry solubility constant Hcp” value (reference: Souchon et al. (2004)) was 0.014.
In the case of `CC1CNCCN1` (stereo unspecified) [2-methylpiperazine], the “Henry solubility constant Hcp” value (reference: Nguyen (2013)) is 5000.
Consider `C1=NCCC1` [1-pyrroline], for which the “Henry solubility constant Hcp” value under setting [2] was found to be 1.6.
Consider `Brc1ccc(Oc2cc(Br)c(Br)c(Br)c2Br)cc1` [2,3,4,4',5-pentabromodiphenyl ether], for which, for the setting “reference: Charles and Destaillats (2005)”, the “Henry solubility constant Hcp” value is 0.88.
On to `[CH3][Hg+].[OH-]` [hydroxymethylmercury], for which the “Henry solubility constant Hcp” value (reference: Iverfeldt and Persson (1985)) amounted to 980.
Consider `Clc1ccc(-c2c(Cl)ccc(Cl)c2Cl)cc1Cl` [2,3,3',4',6-pentachlorobiphenyl], for which, under setting [1], the “Henry solubility constant Hcp” value was found to be 0.027.
`O=C(O)C(Cl)(Cl)Cl` [trichloroethanoic acid]: under “reference: Bowden et al. (1998b)”, the “Henry solubility constant Hcp” value turned out to be 730.

(Values after Sander's compilation of Henry's law constants.)
